Measurements taken from patent publication US20220152214A1, “CANCER TREATMENT WITH ROR1 ANTIBODY IMMUNOCONJUGATES” (VelosBio Inc., priority 2019, published 2022).
Where a SMILES comes first, the peptide text is derived from it. [ ]: non-standard residue; d: D form. The star is where a group is joined. Dolaproine = CO[C@@H]([C@@H]1CCCN1)[C@@H](C)C(=O)O; Dil = CC[C@H](C)[C@H](NC)[C@@H](CC(=O)O)OC; X1 = C[C@@H](N*)[C@@H](O)c1ccccc1; NMeV = CN[C@H](C(=O)O)C(C)C

Test: Plasma pharmacokinetics of total antibody, total ADC-A and MMAE after ADC-A IV infusion
Type: in vivo, human
Set-up: Cmax/Dose / AUClast/Dose: unit not given beside the values
Details: plasma analyte = label
Protocol: The following describes a protocol for evaluating the safety, pharmacokinetics, pharmacodynamics, immunogenicity, and efficacy of a ROR1 immunoconjugate (ADC-A) across a range of dose levels when administered to subjects with previously treated relapsed or refractory CLL/SLL, MCL, FL, MZL, DLBCL, RTL, BL, LPL/WM, T cell NHL, ALL, or AML. ADC-A is administered intravenously (IV) in repeated 3-week cycles with a drug infusion on Day 1 of each cycle (Q1/3W [Schedule 1]); in repeated 3-week cycles with drug infusions on Days 1 and 8 of each cycle (Q2/3W [Schedule 2]); or in repeated 4-week cycles with drug infusions on Days 1, 8, and 15 of each cycle (Q3/4W [Schedule 3]) over a planned infusion time of ˜30 minutes. Infusion times may be extended as necessary to accommodate individual subject tolerance of treatment.

[1] = after ADC-A 0.5 mg/kg IV Q1/3W (n = 1)
[2] = after ADC-A 1.0 mg/kg IV Q1/3W (n = 3)
[3] = after ADC-A 1.5 mg/kg IV Q1/3W (n = 3)
[4] = after ADC-A 2.25 mg/kg IV Q1/3W (n = 9)
[5] = after ADC-A 2.5 mg/kg IV Q1/3W (n = 4)

With `CC[C@H](C)[C@@H]([C@@H](CC(=O)N1CCC[C@H]1[C@H](OC)[C@@H](C)C(=O)N[C@H](C)[C@@H](O)c1ccccc1)OC)N(C)C(=O)[C@@H](NC(=O)[C@@H](NC)C(C)C)C(C)C` [MMAE, monomethyl auristatin E] (H-[NMeV]V[Dil][Dolaproine]-X1) the “Increases in Cmax and AUC with dose” value (ADC-A 0.5 to 2.5 mg/kg IV Q1/3W) was “somewhat less than dose-proportional”, the AUClast [1] was 271 ng·h/mL and the AUClast/Dose [1] was 0.5420. It also gave a Cmax [1] of 1.15 ng/mL, a Cmax/Dose [1] of 0.0023 and a Tmax [1] of 48 h. It also gave an AUClast [2] of 467 ng·h/mL, an AUClast/Dose [2] of 0.4673 and a Cmax [2] of 2.66 ng/mL. It also gave a Cmax/Dose [2] of 0.0027, a Tmax [2] of 48 h and an AUClast [3] of 390 ng·h/mL. The AUClast/Dose [3] was 0.2600, the Cmax [3] was 1.66 ng/mL and the Cmax/Dose [3] was 0.0011. The Tmax [3] was 88.7 h, the AUClast [4] was 698 ng·h/mL and the AUClast/Dose [4] was 0.3102. It also gave a Cmax [4] of 4.43 ng/mL, a Cmax/Dose [4] of 0.0020 and a Tmax [4] of 75.1 h. The AUClast [5] was 994.8 ng·h/mL, the AUClast/Dose [5] was 0.3979 and the Cmax [5] was 6.7 ng/mL. The Cmax/Dose [5] was 0.0027 and the Tmax [5] was 78.5 h.
